{
  "source": "paper PMC10461224",
  "about": "“Development of an Affinity-Based Probe to Profile Endogenous Human Adenosine A3 Receptor Expression” (Journal of Medicinal Chemistry, 2023)",
  "key": {"[1]": {"molecular_target": "T1, hA1AR (Homo sapiens, UniProt P30542)", "T1 construct": "expressed in transfected cells; host or cells: CHO cells (CHOhA1AR), gift of Prof; S.J. Hill, University of Nottingham; membrane fractions", "T1 sequence (P30542 1-326)": "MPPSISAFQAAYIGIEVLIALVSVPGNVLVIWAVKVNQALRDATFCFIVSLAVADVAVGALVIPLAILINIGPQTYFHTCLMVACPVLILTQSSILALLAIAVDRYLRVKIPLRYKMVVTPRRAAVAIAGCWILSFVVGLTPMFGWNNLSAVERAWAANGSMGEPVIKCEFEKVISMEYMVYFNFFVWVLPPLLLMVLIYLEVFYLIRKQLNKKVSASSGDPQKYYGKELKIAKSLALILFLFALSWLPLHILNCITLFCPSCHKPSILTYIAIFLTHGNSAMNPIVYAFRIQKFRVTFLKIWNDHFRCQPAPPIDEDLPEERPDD", "assay": "Full curve displacement assays on the hA1AR", "format": "binding", "details": "from full curve displacement assays (Table S1)", "procedure": "The affinity of the synthesized AfBPs was determined in radioligand binding experiments. First, single concentration displacement assays were carried out on all four human adenosine receptors, using a final probe concentration of 1 μM (Table 1). […] This quick screen indicated a good selectivity toward the hA3AR over the other human ARs, a trend that was also observed in the case of the parent compound.[34] Next, the ‘apparent’ affinities (depicted as pKi values) toward the hA3AR were determined using full curve displacement assays. To study the presumable covalent mode of action, the apparent affinity was determined with (pre-4 h) and without (pre-0 h) 4 h of pre-incubation of AfBP with hA3AR, prior to addition of radioligand. […] This difference in affinity was reflected in a shift in apparent pKi. […] To further investigate selectivity toward the hA3AR over the hA1AR, full curve displacement assays were carried out on the hA1AR.\n(§1) […]. Single point displacement values shown are mean percentages of two individual experiments performed in duplicate. All pKi values shown are mean values ± SEM of three individual experiments performed in duplicate. Statistical analysis was performed using a one-way ANOVA test with multiple comparisons (****p < 0.0001)."}, "[2]": {"molecular_target": "T2, human A2AAR (hA2AAR) (Homo sapiens, UniProt P29274)", "T2 construct": "expressed in transfected cells; host or cells: HEK293 cells (HEKhA2AAR), gift of Dr. J. Wang, Biogen; membrane fractions", "T2 sequence (P29274 whole entry)": "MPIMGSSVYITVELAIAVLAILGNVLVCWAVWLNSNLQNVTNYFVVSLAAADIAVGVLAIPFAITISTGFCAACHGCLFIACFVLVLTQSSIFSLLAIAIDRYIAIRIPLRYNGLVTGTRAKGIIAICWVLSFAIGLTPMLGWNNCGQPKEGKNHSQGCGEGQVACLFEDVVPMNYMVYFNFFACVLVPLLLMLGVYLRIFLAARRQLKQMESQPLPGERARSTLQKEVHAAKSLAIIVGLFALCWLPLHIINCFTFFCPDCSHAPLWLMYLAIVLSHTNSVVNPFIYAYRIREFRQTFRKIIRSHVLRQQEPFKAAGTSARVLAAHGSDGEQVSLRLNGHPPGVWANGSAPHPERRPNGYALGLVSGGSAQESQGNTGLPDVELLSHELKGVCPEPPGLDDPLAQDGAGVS", "assay": "Single-point radioligand displacement, [3H]ZM241385", "format": "binding", "details": "1 μM probe; HEK293 cell membranes; co-incubated with radioligand 30 min at 25 °C; mean of two experiments", "procedure": "(§2) Membrane aliquots containing 15 μg (CHOhA3AR), 5 μg (CHOhA1AR), or 30 μg (HEK293hA2AAR and CHO-spap-A2BAR) of protein were resuspended in assay buffer (A3AR: 50 mM Tris–HCl, pH 8.0, 10 mM MgCl2, 1 mM EDTA, 0.01% CHAPS; A1AR and A2AAR: 50 mM Tris–HCl, pH 7.4; A2BAR: 50 mM Tris–HCl, pH 7.4, 0.1% CHAPS). […] Nonspecific binding was determined in the presence of 100 μM NECA (A3AR), 100 μM CPA (A1AR), 100 μM NECA (A2AAR), and 10 μM ZM241385 (A2BAR). Incubations were terminated by rapid vacuum filtration to separate the bound and free radioligand through prewetted 96-well GF/C filter plates using a PerkinElmer Filtermate harvester. Filters were subsequently washed 12 times with ice-cold wash buffer (A3AR: 50 mM Tris–HCl, pH 8.0, 10 mM MgCl2, 1 mM EDTA; A1AR and A2AAR: 50 mM Tris–HCl, pH 7.4; A2BAR: 50 mM Tris–HCl, pH 7.4, 0.1% BSA). The plates were dried at 55 °C, and MicroscintTM-20 cocktail (PerkinElmer) was added subsequently.\n(§3) Single point displacement values shown are mean percentages of two individual experiments performed in duplicate. All pKi values shown are mean values ± SEM of three individual experiments performed in duplicate."}, "[3]": {"molecular_target": "T3, human A1AR (hA1AR) (Homo sapiens, UniProt P30542)", "T3 construct": "expressed in transfected cells; host or cells: CHO cells (CHOhA1AR), gift of Prof; S.J. Hill, University of Nottingham; membrane fractions", "T3 sequence (P30542 1-326)": "T1 sequence (P30542 1-326)", "assay": "Single-point radioligand displacement, [3H]DPCPX", "format": "binding", "details": "1 μM probe; CHO cell membranes; co-incubated with radioligand 30 min at 25 °C; mean of two experiments", "procedure": "as §2, §3"}, "[4]": {"molecular_target": "T4, human A2BAR (hA2BAR) (Homo sapiens, UniProt P29275)", "T4 construct": "expressed in transfected cells; host or cells: CHO-spap cells (CHO-spap-hA2BAR), gift of S.J. Dowell, GlaxoSmithKline; membrane fractions", "T4 sequence (P29275 1-332)": "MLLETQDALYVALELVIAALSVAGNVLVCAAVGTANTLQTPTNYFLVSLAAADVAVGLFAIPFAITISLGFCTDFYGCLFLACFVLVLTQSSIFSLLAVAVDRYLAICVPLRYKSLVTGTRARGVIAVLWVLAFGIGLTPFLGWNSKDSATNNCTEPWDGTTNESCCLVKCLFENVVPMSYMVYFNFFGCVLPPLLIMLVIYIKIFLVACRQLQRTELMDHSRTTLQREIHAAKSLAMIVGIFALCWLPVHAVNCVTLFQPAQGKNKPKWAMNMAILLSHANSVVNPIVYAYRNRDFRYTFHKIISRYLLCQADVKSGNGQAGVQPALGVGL", "assay": "Single-point radioligand displacement, [3H]PSB-603", "format": "binding", "details": "1 μM probe; CHO-spap cell membranes; co-incubated with radioligand 30 min at 25 °C; mean of two experiments", "procedure": "as §2, §3"}, "[5]": {"molecular_target": "T5, hA3AR (Homo sapiens, UniProt P0DMS8)", "T5 construct": "expressed in transfected cells; host or cells: CHO cells (CHOhA3AR), gift of Prof; K.N. Klotz, University of Würzburg; used as membrane fractions or live cells", "T5 sequence (P0DMS8 1-318)": "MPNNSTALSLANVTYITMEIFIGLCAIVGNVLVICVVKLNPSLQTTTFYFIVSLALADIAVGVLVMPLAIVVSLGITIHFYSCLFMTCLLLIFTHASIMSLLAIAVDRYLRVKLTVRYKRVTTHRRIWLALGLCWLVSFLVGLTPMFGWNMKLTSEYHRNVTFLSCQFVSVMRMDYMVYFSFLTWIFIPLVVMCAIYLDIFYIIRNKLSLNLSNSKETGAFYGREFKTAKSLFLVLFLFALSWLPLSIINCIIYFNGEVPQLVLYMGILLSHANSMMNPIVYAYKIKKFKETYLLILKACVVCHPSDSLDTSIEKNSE", "assay": "Wash-out assay, [3H]PSB-11 binding after washing", "details": "1 μM compound, pre-incubated 2 h at 25 °C, washed 4 times", "procedure": "200 μL assay buffer (50 mM Tris–HCl, pH 8.0, 10 mM MgCl2, 1 mM EDTA and 0.01% CHAPS), 100 μL assay buffer containing the competing ligand (final concentration: 1 μM), and 100 μL of CHOhA3AR membrane fractions (100 μg protein) were combined and pre-incubated for 2 h at 25 °C while shaking. The ‘4× washed’ samples were centrifuged (5 min, 13,000 rpm, 4 °C), and the supernatant was removed. The resulting pellet was dissolved in 1 mL of assay buffer and incubated for 10 min at 25 °C while shaking. The ‘4× washed’ samples were then again centrifuged (2 min, 13,000 rpm, 4 °C), the supernatant was removed, and the resulting pellet was dissolved in 1 mL of assay buffer. The latter washing steps were repeated two times (four times washing total), and the final pellet was dissolved in 300 μL assay buffer. The radioligand (10 nM [^3H]PSB-11) in 100 μL of assay buffer was added to all samples, and the samples were incubated at 25 °C for 1 h. Nonspecific binding was determined in the presence of 100 μM NECA. Incubations were terminated by addition of 1 mL of ice-cold washing buffer (50 mM Tris–HCl, pH 8.0, 10 mM MgCl2, 1 mM EDTA) and rapid vacuum filtration through prewetted 96-well GF/B filter plates using a Brandel harvester. Filters were subsequently washed 5 times with ice-cold wash buffer. The plates were dried under vacuum, and a MicroscintTM-20 cocktail (PerkinElmer) was added subsequently. After 3 h, the filter-bound radioactivity was determined using a 2450 MicroBeta Microplate Counter (PerkinElmer)."}, "[6]": {"molecular_target": "T5, hA3AR", "assay": "Full curve radioligand displacement assay on the adenosine A3 receptor, [3H]PSB-11", "format": "binding", "details": "mean ± SEM, n=3", "procedure": "Membrane aliquots containing 15 μg of protein (CHOhA3AR) were resuspended in assay buffer (50 mM Tris–HCl, pH 8.0, 10 mM MgCl2, 1 mM EDTA, 0.01% CHAPS). The competing ligand (concentrations ranging from 0.1 to 1000 nM) was added and pre-incubated with the membrane fractions for either 0 or 4 h. The radioligand (10 nM [^3H]PSB-11) was then added and incubated with the samples in a total volume of 100 μL of assay buffer for 30 min at 25 °C. Nonspecific binding was determined in the presence of 100 μM NECA. Incubations were terminated by rapid vacuum filtration through prewetted 96-well GF/C filter plates using a PerkinElmer Filtermate harvester. Filters were subsequently washed 12 times with ice-cold wash buffer (50 mM Tris–HCl, pH 8.0, 10 mM MgCl2, 1 mM EDTA). The plates were dried at 55 °C, and MicroscintTM-20 cocktail (PerkinElmer) was added subsequently. After 3 h, the filter-bound radioactivity was determined using a Tri-Carb 2810TR Liquid Scintillation Analyzer (PerkinElmer).\nas §1"}, "[7]": {"molecular_target": "T5, hA3AR", "assay": "Single-point radioligand displacement, [3H]PSB-11", "format": "binding", "details": "1 μM probe; CHO cell membranes; co-incubated with radioligand 30 min at 25 °C; mean of two experiments", "procedure": "as §2, §3"}, "[8]": {"molecular_target": "hA2BAR", "parameters": "method as in PMID 35395239", "details": "taken from previous experiments ref 71; read-out: KD at CHO-spap-hA2BAR membranes; cited from earlier work"}},
  "note": "Marks after values point to notes of the source that are not given here.",
  "data": [
    {"compound": "COc1ccn2c(c1)nc1c2c(=O)[nH]c(=O)n1CCCNC(=O)OC(C)(C)C", "note": "[compound 11, tert-Butyl-(3-(8-methoxy-2,4-dioxo-3,4-dihydropyrido[2,1-f]purin-1(2H)-yl)propyl)carbamate]", "values": [
      {"measurement": "selectivity toward the hA3AR over the hA1AR", "setting": "[1]", "result": "> 7", "unit": "fold"}
    ]},
    {"compound": "C#CCn1c(=O)c2c(nc3cc(OC)ccn32)n(CCCNC(=O)c2ccc(S(=O)(=O)F)cc2)c1=O", "note": "[compound 13, 4-((3-(8-Methoxy-2,4-dioxo-3-(prop-2-yn-1-yl)-3,4-dihydropyrido[2,1-f]purin-1(2H)-yl)propyl)carbamoyl)benzenesulfonyl fluoride]", "values": [
      {"measurement": "% specific [3H]ZM241385 displacement, hA2AAR", "setting": "[2]", "result": 8, "unit": "%"},
      {"measurement": "% specific [3H]DPCPX displacement, hA1AR", "setting": "[3]", "result": 25, "unit": "%"},
      {"measurement": "% specific [3H]PSB-603 displacement, hA2BAR", "setting": "[4]", "result": 5, "unit": "%"},
      {"measurement": "binding to hA3AR after wash-out ([3H]PSB-11 binding recovery)", "setting": "[5]", "result": "persistent binding"},
      {"measurement": "apparent pKi (pre-0 h)", "setting": "[6]; CHO-hA3AR membranes, 25 °C, 0.5 h co-incubation of probe and radioligand, no pre-incubation", "result": "7.17 ± 0.04"},
      {"measurement": "apparent pKi (pre-4 h)", "setting": "[6]; CHO-hA3AR membranes, 25 °C, 4 h pre-incubation with probe then 0.5 h co-incubation with radioligand", "result": "8.38 ± 0.05 ^d"},
      {"measurement": "fold change, ratio Ki(0 h)/Ki(4 h)", "setting": "[6]; hA3AR", "result": "16.6 ± 3.5"},
      {"measurement": "% specific [3H]PSB-11 displacement, hA3AR", "setting": "[7]", "result": 92, "unit": "%"}
    ]},
    {"compound": "CCCn1c(=O)c2c(nc3cc(OC)ccn32)n(CCCNC(=O)c2ccc(S(C)(=O)=O)cc2)c1=O", "note": "[LUF7714, reference compound]", "values": [
      {"measurement": "binding to hA3AR after wash-out ([3H]PSB-11 binding recovery)", "setting": "[5]", "result": "full recovery of radioligand binding"}
    ]},
    {"compound": "CCCn1c(=O)[nH]c2nc(-c3ccc(S(=O)(=O)N4CCN(c5ccc(Cl)cc5)CC4)cc3)[nH]c2c1=O", "note": "[[^3H]PSB603]", "values": [
      {"measurement": "Kd", "setting": "[8]", "result": 1.7, "unit": "nM"}
    ]}
  ]
}
